In patent publication US20110039811A1, “TREATING HYPERGLYCEMIA WITH 25-HYDROXYVITAMIN D3” (priority 2008, published 2011):

What was measured:
[1] = cited from earlier work
[2] = test system: blood glucose; assay: Clinical trial: fasting glucose levels, week 15 versus week 2; assay type: in vivo, human; conditions: for effect on glucose levels (conclusion in words): daily or weekly oral dosing, week 15 vs week 2; for number of individuals with lower glucose levels at week 15 as compared to week 2: of ten individuals receiving daily (20 μg) or weekly (140 μg) oral dosing, postmenopausal women, no rigorous statistics
Text: (§1) Each group included five subjects.
(§2) Equimolar quantities of both substances were investigated.
(§3) Each dosage was consumed orally at breakfast.
(§4) Rigorous statistical analysis of the results obtained could not be performed for two reasons. First, upon unblinding the data, it was discovered that there was a difference between the groups' baseline glucose levels, and that this difference continued throughout the study. Secondly, upon examining individual's insulin levels, it was noted that a number of them were recorded as “0.0” in at least one visit.

[3] = test system: plasma glucose; assay: Mouse study 2: plasma glucose in a model of muscle atrophy (hindlimb unloading); assay type: in vivo, mice; conditions: for change in blood glucose levels versus control with unloading (in words): study 2, Table 2; for Plasma glucose: study 2, hindlimb unloading, 50 μg/kg/bw (combination 50+50) daily by gavage for 3 weeks, control with unloading 12.89, without unloading 12.02
Text: Briefly, nine month old animals were randomized at the beginning of the study into five groups with 10 animals per group. The animals were placed in special cages for duration of three weeks and their tails were suspended, which leads to skeletal muscle atrophy of the unloaded hindlimbs. An additional group without hindlimb unloading was placed in identical cages in order to detect the effects of unloading. All mice were housed separately and had free access to feed and water ad libidum. All animals were treated daily by gavage throughout the 3 weeks of the experiment: • 1. Control group without unloading received vehicle (gelatine) • 2. Control group with unloading received vehicle (gelatine) • 3. […] The 25-OH D3 group with unloading received 25-OH D3 (50 μg/kg/bw) • 5.

[4] = test system: insulin levels; assay: Clinical trial: insulin levels, week 15 versus week 2; assay type: in vivo, human; conditions: for number of individuals with higher insulin levels at week 15 than at week 2 / number of individuals with lower insulin level at week 15 than at week 2: only individuals without a "0.0" insulin result: four for Vitamin D3, five for 25-OH D3, daily or weekly dosing
Text: as §1, §2, §3, §4

[5] = test system: plasma glucose; assay: Mouse study 1: plasma glucose in a model of muscle hypertrophy; assay type: in vivo, mice
Method: In the first study, the effects of 25-OH D3 on blood glucose were determined in a model of muscle hypertrophy. Briefly, two groups of 10 animals were anesthetized and the left hindlimb of the animals was fixed. All animals received an analgesic. A small incision was made through the skin over the gastrocnemius muscle. The complete gastrocnemius muscle and his tendons were exposed. Both heads of the gastrocnemius muscle were carefully dissected from the underlying intact muscles and care was taken not to rupture nerves and vessels. The skin was closed with a silk suture and the animals were returned into the cages. After recovering from anesthesia the animals could move directly without problems in their cages. Animals were treated for three weeks by gavage with 25-OH D3 at a daily dosage of 50 μg/kg and the control group received vehicle. At the end of the study, blood was taken and plasma glucose concentration was analyzed by a Hitachi 912 Automatic Analyser.

| Compound | blood concentration of 25-hydroxyvitamin D after ingestion as a dietary supplement ([1]; ingestion of 250 μg/day Vitamin D) | blood concentration at which hypercalcemia may occur ([1]; in vivo) | effect on glucose levels (conclusion in words) [2] | number of individuals with lower glucose levels at week 15 as compared to week 2 [2] | change in blood glucose levels versus control with unloading (in words) [3] | Plasma glucose [3] | number of individuals with higher insulin levels at week 15 than at week 2 [4] | number of individuals with lower insulin level at week 15 than at week 2 [4] | change in plasma glucose compared to control group (in words) ([5]; study 1, Table 1) | Plasma glucose ([5]; study 1, muscle hypertrophy model, 50 μg/kg daily by gavage for three weeks, vehicle control 15.53) | ability to improve insulin sensitivity (conclusion in words) ([4]; compared with Vitamin D3) |
| --- | --- | --- | --- | --- | --- | --- | --- | --- | --- | --- | --- |
| Vitamin D | about 200 nmol/L | – | – | – | – | – | – | – | – | – | – |
| 25-hydroxyvitamin D | – | greater than 375 nmol/L | – | – | – | – | – | – | – | – | – |
| C=C1CC[C@H](O)C/C1=C/C=C1\CCC[C@]2(C)[C@@H]([C@H](C)CCCC(C)C)CC[C@@H]12 [Vitamin D3, cholecalciferol] | – | – | can lower glucose levels | 7 | moderate decrease in blood glucose levels | 12.69 mmol/L | three | one | – | – | – |
| C=C1CC[C@H](O)C/C1=C/C=C1\CCC[C@]2(C)[C@@H]([C@H](C)CCCC(C)(C)O)CC[C@@H]12 [25-OH D3, 25-hydroxyvitamin D3] | – | – | can lower glucose levels | 6 of 10 | moderate decrease in blood glucose levels | 12.75 mmol/L | one | four | decrease in plasma glucose | 14.65 mmol/L | better ability to improve insulin sensitivy than does Vitamin D3 |
